Values quoted from earlier work in patent US20130267562A1, “ACTIVE ENANTIOMER OF DODECYL 2-(N,N-DIMETHYLAMINO)-PROPIONATE” (NEXMED HOLDINGS, INC, priority 2010, published 2013).

miscibility with organic solvents (most organic solvents): miscible with most organic solvents | solubility in water (water): not soluble
SMILES: CCCCCCCCCCCCOC(=O)C(C)N(C)C (racemic) [Racemic DDAIP, dodecyl 2-methyl-2-(N,N-dimethylamino)acetate]
